In patent US11547703B2, “Substituted fused heteroaromatic tricyclic compounds as kinase inhibitors and the use thereof” (IMPACT THERAPEUTICS (SHANGHAI), INC, priority 2017, dated 2023):

Assays:
[1] = tested on: human colon cancer cell SW620; assay: MTT assay, growth of SW620 cells, compounds combined with CPT-11; assay type: cell-based; conditions: 205 nM CPT-11, 5 days, MTT
Procedure: (§1) SW620 cells were digested by trypsinase, centrifuged at 800 rpm for 5 minutes, the supernatant was discarded, resuspended with fresh medium (RPMI 1640 medium+10% FBS) and counted. The cells were seeded into 96-well cell culture plate with appropriate cell density and incubated overnight in a 37° C. 5% CO2 incubator. The stock solutions of the tested compound and the reference compound AZD0156 were serially diluted to 8 concentrations by DMSO at the ratios of 1:3 and 1:10, respectively, and the last concentration was negative control of DMSO (0 μM, the final concentration of DMSO was 1%). 5 μL of each concentration was added to 120 μL of medium (25 times diluted) and mixed by shaking. The overnight cells were taken and the culture medium was removed, 195 μL of fresh medium containing 205 nM CPT-11 was added to each well, and 5 μL of diluted medium containing the corresponding concentration of the tested sample was added respectively, and the culture plate was then placed in the 5% CO2 cell culture incubator at 37° C. for 5 days. After removing the original solution, 100 μL of fresh serum-free DMEM medium containing MTT (0.5 mg/mL) was added to each well, the culture was continued. After 4 hours, the original solution was removed, 100 μL of DMSO was added into each well, the 96-well plates were shaken away from light for 10 minutes and placed in a multi-function reader to read the absorbance at the wavelength of 552/630/690 nm. GraphPad Prism 6.0 was used to analyze the data. The inhibitory activity of compounds on cell proliferation was plotted based on cell viability and compound concentration. The IC50 value was fitted by a sigmoidal dose response curve equation Y=100/(1+10^(Log C−Log IC50)), where C was the concentration of compound.

[2] = target: ATM enzyme (human) (Homo sapiens, UniProt Q13315); assay: ATM kinase assay (HTRF, phosphorylation of GST-cMyc-p53); assay type: biochemical
Procedure: ATM enzyme (human) was added to the reaction solution containing 30 nM GST-cMyc-p53 and 10 μM Mg/ATP, and then 50 times the concentration of the tested compound (or reference compound AZD0156) dissolved in 100% DMSO was added to the final concentration of 10 μM/1 μM/0.1 μM/0.01 μM. The reaction was initiated by the addition of a Mg/ATP mixture and incubation for 30 minutes at room temperature, the reaction was quenched by the addition of a stop solution containing EDTA. Finally, the detection buffer containing the d2-labeled anti-GST monoclonal antibody and the europium-labeled anti-phospho p53 (Ser15) antibody was added. The plate was then read in time resolved fluorescence mode and the homogeneous time resolved fluorescence (HTRF) signal was determined according to the equation: HTRF=10000×(Em665nm/Em620nm). Each compound sample was repeated in duplicate. The negative control contained all components except the ATM enzyme, and the positive control contained all components. All reactions were quenched by adding EDTA.
The compounds were serially diluted to 10 concentrations with 100% DMSO at the ratio of 1:3 and 1:10 (the last concentration was negative control of DMSO), then added to the ATM buffer and diluted to a final concentration of 10, 3, 1, 0.3, 0.1, 0.03, 0.01, 0.003, 0.001 and 0 μM, respectively. ATM kinase inhibition was detected by using the method described above. The curve equation for calculating IC50 value is as follows: […]
wherein, C is the concentration of compound and D is the slope factor. Table 2 summarizes the IC50 values of compounds inhibiting ATM kinase.

[3] = tested on: human breast cancer cell MDA-MB-468; assay: MTT assay, growth of MDA-MB-468 cells; assay type: cell-based; conditions: single agent, 7 days, MTT
Procedure: as §1, with “MDA-MB-468 cells” for “SW620 cells”, “1:10, respectively:” for “1:10, respectively, and”, “medium (PRMI 1640+5% FBS)” for “medium containing 205 nM CPT-11”, “for 7 days (On the fourth day, the medium containing drugs was removed and fresh medium containing drugs was added for continuous cultivation).” for “for 5 days.”

[4] = 0.5 h, detected concentration 1 μm
[5] = Homo sapiens, MDA-MB-468, 168 h

ATM enzyme (human), sequence (Q13315 whole entry): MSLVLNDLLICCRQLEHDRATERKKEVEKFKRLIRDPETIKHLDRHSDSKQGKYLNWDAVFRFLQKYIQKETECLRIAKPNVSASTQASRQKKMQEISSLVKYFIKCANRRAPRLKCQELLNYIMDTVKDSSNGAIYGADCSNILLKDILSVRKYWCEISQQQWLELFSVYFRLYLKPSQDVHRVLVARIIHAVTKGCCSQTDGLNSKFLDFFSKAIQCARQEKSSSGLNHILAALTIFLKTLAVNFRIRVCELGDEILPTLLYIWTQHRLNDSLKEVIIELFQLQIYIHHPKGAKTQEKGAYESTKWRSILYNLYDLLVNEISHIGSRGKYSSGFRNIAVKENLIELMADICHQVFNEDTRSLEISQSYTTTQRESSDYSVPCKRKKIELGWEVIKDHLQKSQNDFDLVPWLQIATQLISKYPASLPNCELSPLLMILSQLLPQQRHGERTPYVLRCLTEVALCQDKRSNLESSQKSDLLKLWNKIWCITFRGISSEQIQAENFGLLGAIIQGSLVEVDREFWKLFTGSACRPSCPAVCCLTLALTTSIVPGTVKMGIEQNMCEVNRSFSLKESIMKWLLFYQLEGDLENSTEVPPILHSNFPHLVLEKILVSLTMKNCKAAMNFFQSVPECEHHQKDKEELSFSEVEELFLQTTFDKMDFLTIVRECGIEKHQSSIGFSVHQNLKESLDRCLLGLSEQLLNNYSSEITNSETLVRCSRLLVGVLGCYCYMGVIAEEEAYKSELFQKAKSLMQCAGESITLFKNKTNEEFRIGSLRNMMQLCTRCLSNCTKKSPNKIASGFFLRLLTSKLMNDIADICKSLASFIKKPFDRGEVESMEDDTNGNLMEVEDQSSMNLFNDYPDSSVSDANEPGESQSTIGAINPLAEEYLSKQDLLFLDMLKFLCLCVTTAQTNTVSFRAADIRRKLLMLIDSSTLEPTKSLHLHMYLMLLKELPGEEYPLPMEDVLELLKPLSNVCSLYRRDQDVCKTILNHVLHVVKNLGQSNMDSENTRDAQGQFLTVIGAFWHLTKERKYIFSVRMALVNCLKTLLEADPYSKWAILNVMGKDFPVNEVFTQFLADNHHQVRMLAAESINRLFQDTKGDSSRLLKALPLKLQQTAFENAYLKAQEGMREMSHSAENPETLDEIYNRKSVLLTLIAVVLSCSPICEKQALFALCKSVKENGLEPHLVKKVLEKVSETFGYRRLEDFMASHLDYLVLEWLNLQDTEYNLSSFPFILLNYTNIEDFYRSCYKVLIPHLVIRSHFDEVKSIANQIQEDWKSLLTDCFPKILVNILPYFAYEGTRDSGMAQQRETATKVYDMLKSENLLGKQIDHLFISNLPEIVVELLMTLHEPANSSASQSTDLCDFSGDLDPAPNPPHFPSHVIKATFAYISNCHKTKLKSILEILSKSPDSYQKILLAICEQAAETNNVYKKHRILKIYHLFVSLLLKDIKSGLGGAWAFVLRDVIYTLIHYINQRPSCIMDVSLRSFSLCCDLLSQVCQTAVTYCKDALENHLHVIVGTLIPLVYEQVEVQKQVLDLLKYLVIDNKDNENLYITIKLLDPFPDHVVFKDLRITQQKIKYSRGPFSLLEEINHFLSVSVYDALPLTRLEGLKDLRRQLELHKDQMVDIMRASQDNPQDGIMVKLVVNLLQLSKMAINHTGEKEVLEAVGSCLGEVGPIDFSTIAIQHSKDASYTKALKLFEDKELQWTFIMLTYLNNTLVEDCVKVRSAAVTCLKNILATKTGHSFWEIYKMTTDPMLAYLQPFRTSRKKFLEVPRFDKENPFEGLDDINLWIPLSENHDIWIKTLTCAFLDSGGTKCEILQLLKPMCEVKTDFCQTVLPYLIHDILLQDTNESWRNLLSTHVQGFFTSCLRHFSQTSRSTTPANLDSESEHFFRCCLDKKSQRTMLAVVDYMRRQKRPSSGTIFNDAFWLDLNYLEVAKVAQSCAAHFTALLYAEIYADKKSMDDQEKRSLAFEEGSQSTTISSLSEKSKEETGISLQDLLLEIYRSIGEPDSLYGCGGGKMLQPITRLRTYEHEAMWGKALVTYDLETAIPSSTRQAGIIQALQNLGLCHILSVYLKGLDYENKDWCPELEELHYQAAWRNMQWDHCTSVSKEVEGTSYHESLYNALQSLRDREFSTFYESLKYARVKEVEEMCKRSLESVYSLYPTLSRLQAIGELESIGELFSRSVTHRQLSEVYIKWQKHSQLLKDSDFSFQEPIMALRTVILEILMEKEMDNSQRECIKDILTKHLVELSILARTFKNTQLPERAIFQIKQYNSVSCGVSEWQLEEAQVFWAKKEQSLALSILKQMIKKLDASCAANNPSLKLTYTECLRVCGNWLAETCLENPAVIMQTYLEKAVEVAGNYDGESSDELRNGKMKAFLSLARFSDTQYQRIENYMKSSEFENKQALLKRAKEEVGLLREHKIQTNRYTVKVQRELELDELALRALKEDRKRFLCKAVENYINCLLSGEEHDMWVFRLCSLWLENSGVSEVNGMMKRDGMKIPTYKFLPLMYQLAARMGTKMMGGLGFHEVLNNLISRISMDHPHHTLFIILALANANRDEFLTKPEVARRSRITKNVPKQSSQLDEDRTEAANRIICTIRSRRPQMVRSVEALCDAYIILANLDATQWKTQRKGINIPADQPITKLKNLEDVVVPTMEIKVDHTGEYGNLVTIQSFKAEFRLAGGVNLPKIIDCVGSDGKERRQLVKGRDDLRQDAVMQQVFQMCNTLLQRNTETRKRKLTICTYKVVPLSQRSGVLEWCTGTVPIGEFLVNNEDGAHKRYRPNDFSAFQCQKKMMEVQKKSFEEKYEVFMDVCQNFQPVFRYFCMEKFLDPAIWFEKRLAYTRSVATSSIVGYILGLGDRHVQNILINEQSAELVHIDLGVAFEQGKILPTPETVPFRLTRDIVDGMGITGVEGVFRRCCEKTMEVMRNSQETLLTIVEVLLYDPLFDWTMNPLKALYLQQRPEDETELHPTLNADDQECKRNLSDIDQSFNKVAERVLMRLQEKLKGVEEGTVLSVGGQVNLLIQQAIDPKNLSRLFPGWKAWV

Compound | IC50 ([1]; Homo sapiens, SW-620, 120 h) [nM] | inhibition at 1 µM [2, 4] [%] | IC50 [3, 5] [nM] | also measured
CN(C)CCCOc1ccc(-c2ccc3nc4cccc(-n5ccnc5)c4n3c2)cn1 [Example 9, N,N-dimethyl-3-((5-(9-(1H-imidazol-1-yl)benzo[4,5]imidazo[1,2-a]pyridin-2-yl)pyridin-2-yl)oxy) propan-1-amine] | 9310 | 60 | 3660 | –
CN(C)CCCOc1ccc(-c2ccc3nc4cccc(CN5CCOCC5)c4n3c2)cn1 [Example 10, N,N-dimethyl-3-((5-(9-(morpholinomethyl)benzo[4,5]imidazo[1,2-a]pyridin-2-yl)pyridin-2-yl)oxy)propan-1-amine] | > 10000 | 77 | > 10000 | –
CN(C)CCCOc1ccc(-c2ccc3nc4cccc(N5CCOCC5)c4n3c2)cn1 [Example 6, N,N-dimethyl-3-((5-(9-morpholinobenzo[4,5]imidazo[1,2-a]pyridin-2-yl)pyridin-2-yl)oxy)propan-1-amine] | 2470 | 77 | – | –
CN(C)CCCOc1ccc(-c2ccc3nc4cccc(N5CCN(C)CC5)c4n3c2)cn1 [Example 7, N,N-dimethyl-3-((5-(9-(4-methylpiperazin-1-yl)benzo[4,5]imidazo[1,2-a]pyridin-2-yl)pyridin-2-yl)oxy)propan-1-amine] | > 10000 | 64 | – | –
N,N-dimethyl-3-(2-(trifluoromethyl)-4-(942S,6R)-2,6-dimethylmorpholino)benzo[4,5]imidazo[1,2-a]pyridin-2-yl)phenoxy)propan-1-amine [Example 55] | – | – | – | IC50 [3]: 255 nM; IC50 [1]: 228 nM
CN(C)CCCOc1ccc(-c2ccc3nc4cccc(N5CCN(C)CC5)c4n3c2)cc1 [Example 3, N,N-dimethyl-3-(4-(9-(4-methylpiperazin-1-yl)benzo[4,5]imidazo[1,2-a]pyridin-2-yl)phenoxy)propan-1-amine] | 563 | – | 330 | –
CN(C)CCCOc1ccc(-c2ccc3nc4cccc(C5=CCOCC5)c4n3c2)cc1 [Example 2, N,N-dimethyl-3-(4-(9-(3,6-dihydro-2H-pyran-4-yl)benzo[4,5]imidazo[1,2-a]pyridin-2-yl)phenoxy)propan-1-amine] | 1660 | 81 | – | –
CN(C)CCCOc1ccc(-c2ccc3nc4cccc(CN5CCN(C)CC5)c4n3c2)cn1 [Example 11] | – | – | – | IC50 [1]: 1040 nM; inhibition(%) of ATM kinase ([2]; detected concentration 1 μm): 63%
CN(C)CCCOc1ccc(-c2ccc3nc4cccc(N5CCCCC5)c4n3c2)cn1 [Example 5, N,N-dimethyl-3-((5-(9-(piperidin-1-yl)benzo[4,5]imidazo[1,2-a]pyridin-2-yl)pyridin-2-yl)oxy)propan-1-amine] | > 10000 | 61 | – | –
CN(C)CCCOc1ccc(-c2ccc3nc4cccc(N5CCOCC5)c4n3c2)cc1 [Example 4, N,N-dimethyl-3-(4-(9-morpholinobenzo[4,5]imidazo[1,2-a]pyridin-2-yl)phenoxy)propan-1-amine] | 5480 | 74 | – | –
N,N-dimethyl-1-(2-(trifluoromethyl)-4-(942S,6R)-2,6-dimethylmorpholino)benzo[4,5]imidazo[1,2-a]pyridin-2-yl)phenyl)piperidin-4-amine [Example 54] | – | – | – | IC50 [3]: 220 nM; IC50 [1]: 193 nM
CN(C)CCCOc1ccc(-c2ccc3nc4cccc(OC5CCOCC5)c4n3c2)cn1 [Example 13, N,N-dimethyl-3-((5-(9-((tetrahydro-2H-pyran-4-yl)oxy)benzo[4,5]imidazo[1,2-a]pyridin-2-yl)pyridin-2-yl)oxy)propan-1-amine] | 1570 | 86 | – | –

Further lines, with some results ahead:

IC50 ([1]; Homo sapiens, SW-620, 120 h) [nM] | inhibition at 1 µM [2, 4] [%] | IC50 [3, 5] [nM] | Compound | also measured
1510 | 91 | – | CN(C)C1CCN(c2ccc(-c3ccc4nc5cccc(C6=CCOCC6)c5n4c3)cc2)CC1 [Example 39, N,N-dimethyl-1-(4-(9-(3,6-dihydro-2H-pyran-4-yl)benzo[4,5]imidazo[1,2-a]pyridin-2-yl)phenyl)piperidin-4-amine] | inhibition at 0.01 µM ([2]; 0.5 h, detected concentration 0.01 μm): 17%; inhibition at 0.1 µM ([2]; 0.5 h, detected concentration 0.1 μm): 62%
2100 | 88 | 2400 | CN(C)C1CCN(c2ccc(-c3ccc4nc5cccc(N6CCOCC6)c5n4c3)cn2)CC1 [Example 42, N,N-dimethyl-1-(5-(9-morpholinobenzo[4,5]imidazo[1,2-a]pyridin-2-yl)pyridin-2-yl)piperidin-4-amine] | –
162 | 100 | – | C[C@@H]1CN(c2cccc3nc4ccc(-c5ccc(OCCCN(C)C)c(C(F)(F)F)c5)cn4c23)C[C@H](C)N1C [Example 53, N,N-dimethyl-3-(2-(trifluoromethyl)-4-(9-((3S,5R)-3,4,5-trimethylpiperazin-1-yl)benzo[4,5]imidazo[1,2-a]pyridin-2-yl)phenoxy)propan-1-amine] | –
3480 | 82 | – | CN(C)C1CCN(c2ccc(-c3ccc4nc5cccc(N6CCOCC6)c5n4c3)cc2)CC1 [Example 41, N,N-dimethyl-1-(4-(9-morpholinobenzo[4,5]imidazo[1,2-a]pyridin-2-yl)phenyl)piperidin-4-amine] | –
1240 | – | 1800 | C[C@@H]1CN(c2ncnc3nc4ccc(-c5ccc(N6CCC(N(C)C)CC6)cc5)nn4c23)C[C@H](C)N1C [Example 71, N,N-dimethyl-1-(4-(4-((3 S,5R)-3,4,5-trimethylpiperazin-1-yl)pyridazino[6,1-f]purin-7-yl)phenyl)piperidin-4-amine] | –
> 10000 | 48 | – | CN(C)CCCOc1ccc(-c2ccc3nc4cccc(NC5CCOCC5)c4n3c2)cn1 [Example 14, N,N-dimethyl-3-((5-(9-(tetrahydro-2H-pyran-4-ylamino)benzo[4,5]imidazo[1,2-a]pyridin-2-yl)pyridin-2-yl)oxy)propan-1-amine] | –
> 1000 | – | > 1000 | C[C@@H]1CN(c2cccc3nc4ccc(-c5ccc(OCCCN(C)C)c(F)c5)cn4c23)C[C@H](C)N1C [Example 50, N,N-dimethyl-3-(2-fluoro-4-(9-((3S,5R)-3,4,5-trimethylpiperazin-1-yl)benzo[4,5]imidazo[1,2-a]pyridin-2-yl)phenoxy)propan-1-amine] | –
2370 | 96 | – | CN(C)C1CCN(c2ccc(-c3ccc4nc5cccc(C6=CCOCC6)c5n4c3)cn2)CC1 [Example 40, N,N-dimethyl-1-(5-(9-(3,6-dihydro-2H-pyran-4-yl)benzo[4,5]imidazo[1,2-a]pyridin-2-yl)pyridin-2-yl)piperidin-4-amine] | –
